Measured values as given in ChEMBL document CHEMBL5321258, “Anticancer evaluation of benzofuran derivatives linked to dipiperazine moiety” (Bioorg Med Chem Lett, 2023).
pIC50: −log10 of the molar value.

Assays:
HeLa [1] = assay: Anticancer activity against human Hela cells assessed as inhibition rate at 10 uM by SRB assay relative to control; format: functional
HeLa [2] = assay: Anticancer activity against human Hela cells assessed as inhibition rate at 30 uM by SRB assay relative to control; format: functional
A549 [3] = assay: Anticancer activity against human A549 cells assessed as inhibition rate at 30 uM by SRB assay relative to control; format: functional
A549 [4] = assay: Anticancer activity against human A549 cells assessed as inhibition rate at 10 uM by SRB assay relative to control; format: functional
HeLa [5] = assay: Anticancer activity against human HeLa cells assessed as inhibition of cell proliferation by SRB assay; format: functional, cell-based
A549 [6] = assay: Anticancer activity against human A549 cells assessed as inhibition of cell proliferation by SRB assay; format: functional, cell-based
A549 [7] = assay: Induction of apoptosis in human A549 cells assessed as viable cells at 2.5 uM incubated for 24 hrs AnnexinV/ propidium iodide staining based flow cytometry (Rvb= 98.5 %); format: functional; conditions: read-out: Activity
A549 [8] = assay: Induction of apoptosis in human A549 cells assessed as late apoptotic cells at 5 uM incubated for 24 hrs AnnexinV/ propidium iodide staining based flow cytometry (Rvb= 0.54 %); format: functional
A549 [9] = assay: Induction of apoptosis in human A549 cells assessed as late apoptotic cells at 2.5 uM incubated for 24 hrs AnnexinV/ propidium iodide staining based flow cytometry (Rvb= 0.54 %); format: functional
A549 [10] = assay: Induction of apoptosis in human A549 cells assessed as early apoptotic cells at 2.5 uM incubated for 24 hrs AnnexinV/ propidium iodide staining based flow cytometry (Rvb= 0.79 %); format: functional
A549 [11] = assay: Induction of apoptosis in human A549 cells assessed as viable cells at 5 uM incubated for 24 hrs AnnexinV/ propidium iodide staining based flow cytometry (Rvb= 98.5 %); format: functional; conditions: read-out: Activity
A549 [12] = assay: Induction of apoptosis in human A549 cells assessed as necrotic cells at 2.5 uM incubated for 24 hrs AnnexinV/ propidium iodide staining based flow cytometry (Rvb= 0.16 %); format: functional
A549 [13] = assay: Induction of apoptosis in human A549 cells assessed as early apoptotic cells at 5 uM incubated for 24 hrs AnnexinV/ propidium iodide staining based flow cytometry (Rvb= 0.79 %); format: functional
A549 [14] = assay: Induction of apoptosis in human A549 cells assessed as necrotic cells at 5 uM incubated for 24 hrs AnnexinV/ propidium iodide staining based flow cytometry (Rvb= 0.16 %); format: functional

Row | pIC50 (HeLa [5]) | pIC50 (A549 [6]) | SMILES | inhibition at 10 µM (HeLa [1]) | inhibition at 30 µM (HeLa [2]) | inhibition at 30 µM (A549 [3]) | inhibition at 10 µM (A549 [4]) | viability at 2.5 µM (A549 [7]) | Activity (A549 [8]) | Activity (A549 [9]) | Activity (A549 [10]) | viability at 5 µM (A549 [11]) | Activity (A549 [12]) | Activity (A549 [13]) | Activity (A549 [14])
1 | – | – | CCN(CC)c1ccc2cc(C(O)c3ccc(OCCN4CCN(C(=O)CN5CCN(C(=O)c6ccc(OC)cc6)CC5)CC4)cc3)oc2c1 (stereo not given) | 42% | 66.7% | 63.5% | 55.2% | – | – | – | – | – | – | – | –
2 | 4.57 | 5.09 | CCN(CC)c1ccc2cc(C(=O)c3ccc(OCCN4CCN(C(=O)CN5CCN(C(=O)c6ccc(OC)cc6)CC5)CC4)cc3)oc2c1 | 27.5% | 64.1% | 85.8% | 65.3% | – | – | – | – | – | – | – | –
3 | 5.15 | 5.04 | CCN(CC)c1ccc2cc(C(=O)c3ccc(OCCN4CCN(C(=O)CN5CCN(C(=O)c6ccc(C)cc6)CC5)CC4)cc3)oc2c1 | 61.4% | 90.1% | 62.4% | 54.3% | – | – | – | – | – | – | – | –
4 | – | – | CCN(CC)c1ccc2cc(C(=O)c3ccc(OCCN4CCN(C(=O)CN5CCN(C(=O)c6cc(F)c(F)c(F)c6F)CC5)CC4)cc3)oc2c1 | 28% | 86.6% | 61.1% | 20% | – | – | – | – | – | – | – | –
5 | – | – | CCN(CC)c1ccc2cc(C(=O)c3ccc(OCCN4CCN(C(=O)CN5CCN(C(=O)c6cccc(C(F)(F)F)c6)CC5)CC4)cc3)oc2c1 | 27.4% | 70.1% | 57.8% | 49.3% | – | – | – | – | – | – | – | –
6 | 4.83 | 4.60 | CCN(CC)c1ccc2cc(C(=O)c3ccc(OCCN4CCN(C(=O)CN5CCN(C(=O)c6ccc(Cl)cc6)CC5)CC4)cc3)oc2c1 | 47.5% | 89% | 78.1% | 22.9% | – | – | – | – | – | – | – | –
7 | – | – | CCN(CC)c1ccc2cc(C(O)c3ccc(OCCN4CCN(C(=O)CN5CCN(C(=O)c6ccccc6C(F)(F)F)CC5)CC4)cc3)oc2c1 (stereo not given) | 30.6% | 49.8% | 57.8% | 43.6% | – | – | – | – | – | – | – | –
8 | 5.16 | 5.04 | C=CC(=O)N1CCN(CC(=O)N2CCN(CCOc3ccc(C(O)c4cc5ccc(N(CC)CC)cc5o4)cc3)CC2)CC1 (stereo not given) | 53.8% | 90.7% | 64% | 51.9% | – | – | – | – | – | – | – | –
9 | – | – | C=CC(=O)N1CCN(CC(=O)N2CCN(CCOc3ccc(C(=O)c4cc5ccc(N(CC)CC)cc5o4)cc3)CC2)CC1 | 18.6% | 32.1% | 9.3% | 2.3% | – | – | – | – | – | – | – | –
10 | – | – | CCN(CC)c1ccc2cc(C(O)c3ccc(OCCN4CCN(C(=O)CN5CCN(C(=O)c6ccc(Br)cc6C(F)(F)F)CC5)CC4)cc3)oc2c1 (stereo not given) | -1.6% | 9.7% | 72.3% | 69.7% | – | – | – | – | – | – | – | –
11 | – | – | CCN(CC)c1ccc2cc(C(=O)c3ccc(OCCN4CCN(C(=O)CN5CCN(C(=O)c6ccc([N+](=O)[O-])cc6)CC5)CC4)cc3)oc2c1 | 17.2% | 24% | 22.9% | 16.5% | – | – | – | – | – | – | – | –
12 | < 4.52 | 6.37 | CCN(CC)c1ccc2cc(C(O)c3ccc(OCCN4CCN(C(=O)CN5CCN(C(=O)c6ccc(F)cc6)CC5)CC4)cc3)oc2c1 (stereo not given) | 20.4% | 40.6% | 83.9% | 80.1% | 71% | 39% | 18.9% | 5.88% | 23.4% | 4.26% | 28.5% | 9.18%
13 | < 4.52 | 5.52 | CCN(CC)c1ccc2cc(C(O)c3ccc(OCCN4CCN(C(=O)CN5CCN(C(=O)c6ccc7ccccc7c6)CC5)CC4)cc3)oc2c1 (stereo not given) | 12.1% | 24% | 89.2% | 77.9% | – | – | – | – | – | – | – | –
14 | – | – | CCN(CC)c1ccc2cc(C(=O)c3ccc(OCCN4CCN(C(=O)CN5CCN(C(=O)c6cc(Cl)cc(Cl)c6)CC5)CC4)cc3)oc2c1 | 20.1% | 41.7% | 49.3% | 39.8% | – | – | – | – | – | – | – | –
15 | – | – | C=C(C)C(=O)N1CCN(CC(=O)N2CCN(CCOc3ccc(C(=O)c4cc5ccc(N(CC)CC)cc5o4)cc3)CC2)CC1 | -2.1% | 3.2% | 69.8% | 36.1% | – | – | – | – | – | – | – | –
